# According to the supplement of paper PMC10307832:
# Legend:
# Assay in all cases: relative viability (nuclei count vs DMSO), 5 days (fraction); higher = more cells survive
# BGJ398 + Navitoclax = compound: CCN1CCN(c2ccc(Nc3cc(N(C)C(=O)Nc4c(Cl)c(OC)cc(OC)c4Cl)ncn3)cc2)CC1 [BGJ398] + CC1(C)CCC(c2ccc(Cl)cc2)=C(CN2CCN(c3ccc(C(=O)NS(=O)(=O)c4ccc(N[C@H](CCN5CCOCC5)CSc5ccccc5)c(S(=O)(=O)C(F)(F)F)c4)cc3)CC2)C1 [Navitoclax] (partner 0.5 µM)
# Method in brief: (§1)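 Medians of duplicate plates are given as relative viability. That measure is the nuclei count in treated wells divided by the count in vehicle wells. Counts were taken on 4× images of lung cancer cell lines in 1536-well plates, 5 days after pin-tool dosing the day after seeding with one drug alone or a fixed anchor-drug dose plus five library-drug doses (not always all listed) in √10 steps.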
# [1] = compound: C1=CC2=NC=CN=C2C=C1/C=C/3\C(=O)NC(=O)S3 + O=C(CCCCCCC(=O)Nc1ccccc1)NO [Vorinostat] (partner 1 µM)
# Method in brief: as §1
# BGJ398 + Linsitinib = compound: CCN1CCN(c2ccc(Nc3cc(N(C)C(=O)Nc4c(Cl)c(OC)cc(OC)c4Cl)ncn3)cc2)CC1 [BGJ398] + C[C@]1(O)C[C@@H](c2nc(-c3ccc4ccc(-c5ccccc5)nc4c3)c3c(N)nccn32)C1 [Linsitinib] (partner 1 µM)
# Method in brief: as §1
# [2] = compound: C1=CC2=NC=CN=C2C=C1/C=C/3\C(=O)NC(=O)S3 + COc1cccc2cc(-c3nc([C@H]4CC[C@H](C(=O)O)CC4)n4ncnc(N)c34)[nH]c12 [OSI-027] (partner 0.5 µM)
# Method in brief: as §1
Cell Line,relative viability (BGJ398 + Navitoclax; first compound 0.01 µM),relative viability (BGJ398 + Navitoclax; first compound 0.03162 µM),relative viability (BGJ398 + Navitoclax; first compound 0.1 µM),relative viability (BGJ398 + Navitoclax; first compound 0.3162 µM),relative viability (BGJ398 + Navitoclax; first compound 1 µM),relative viability ([1]; first compound 0.02 µM),relative viability ([1]; first compound 0.06325 µM),relative viability ([1]; first compound 0.2 µM),relative viability ([1]; first compound 0.6325 µM),relative viability ([1]; first compound 2 µM),relative viability (BGJ398 + Linsitinib; first compound 0.01 µM),relative viability (BGJ398 + Linsitinib; first compound 0.03162 µM),relative viability (BGJ398 + Linsitinib; first compound 0.1 µM),relative viability (BGJ398 + Linsitinib; first compound 0.3162 µM),relative viability (BGJ398 + Linsitinib; first compound 1 µM),relative viability ([2]; first compound 0.02 µM),relative viability ([2]; first compound 0.06325 µM),relative viability ([2]; first compound 0.2 µM),relative viability ([2]; first compound 0.6325 µM),relative viability ([2]; first compound 2 µM)
HCC-78,0.734,0.751,0.935,0.879,0.823,0.464,0.428,0.379,0.449,0.349,0.378,0.463,0.614,0.541,0.546,0.362,0.408,0.352,0.347,0.279
HCC-366,1.01,1.18,0.995,1.02,1.1,0.293,–,0.436,0.305,0.204,0.743,0.736,0.699,0.801,0.784,0.727,–,1.06,0.823,0.322
HCC-827,0.935,–,1.03,1.02,1.02,0.797,0.702,0.833,0.874,0.465,0.95,–,0.872,0.942,0.989,0.771,0.725,0.765,0.741,0.779
HOP-62,0.915,1,1.1,1.02,1.01,0.571,0.694,0.732,0.581,0.571,1,1.11,1.02,0.876,0.946,0.742,1.02,0.833,0.827,0.607
IA-LM,0.614,0.798,0.764,0.724,0.917,0.884,0.467,0.964,0.985,0.968,0.532,0.499,0.501,0.496,0.481,–,–,–,–,–
LC-2-ad,0.366,0.575,0.519,0.612,0.392,0.589,0.768,0.707,0.668,0.434,0.827,0.88,0.817,0.87,0.843,0.893,0.752,0.807,0.757,0.454
LCLC-97TM1,0.315,0.271,0.41,0.683,0.646,0.617,0.637,0.659,0.576,0.153,0.169,0.159,0.194,0.212,0.186,0.556,0.522,0.436,0.461,0.145
LCLC-103H,–,–,–,–,–,0.694,0.804,0.846,0.685,0.651,1.05,1.15,1.07,1.02,1.1,0.431,0.493,0.489,0.377,0.308
NCI-H358,–,–,–,–,–,0.674,0.714,0.725,0.659,0.579,0.631,0.714,0.724,0.707,0.848,0.869,0.753,0.768,0.623,0.228
NCI-H522,–,–,–,–,–,0.768,0.839,1.22,0.75,0.795,–,–,–,–,–,0.706,0.763,0.675,0.717,0.562
NCI-H650,–,–,–,–,–,0.465,0.377,0.434,0.42,0.254,0.822,1.01,0.959,0.875,0.909,0.519,0.601,0.621,0.495,0.269
NCI-H661,–,–,–,–,–,0.75,0.86,0.845,0.799,0.948,0.531,0.77,0.644,0.678,0.548,0.785,0.796,0.682,0.621,0.584
NCI-H1299,1.06,1.06,1.03,1.03,1.06,–,–,–,–,–,0.926,1.03,0.974,0.928,0.727,–,–,–,–,–
NCI-H1563,–,–,–,–,–,–,–,–,–,–,1.17,1.18,0.947,0.792,0.724,0.834,0.823,0.76,0.734,0.65
NCI-H1623,–,–,–,–,–,–,–,–,–,–,–,–,–,–,–,0.411,0.415,0.419,0.421,0.253
NCI-H1648,–,–,–,–,–,0.435,0.357,0.424,–,0.423,–,–,–,–,–,0.238,–,0.313,0.246,0.261
NCI-H1650,0.859,1.04,0.649,0.699,0.817,0.572,0.556,0.589,0.525,0.512,–,–,–,–,–,0.688,0.605,0.783,0.677,0.493
NCI-H1703,0.823,1.39,0.989,1.14,0.964,–,–,–,–,–,0.811,0.497,0.699,0.569,0.705,–,–,–,–,–
NCI-H1792,0.659,0.561,0.642,0.601,0.553,–,–,–,–,–,0.482,0.511,0.551,0.63,0.287,0.722,0.65,0.728,0.666,0.294
NCI-H2170,0.505,0.572,0.586,0.671,0.765,0.732,0.583,0.846,0.776,0.878,–,–,–,–,–,0.714,0.777,0.729,0.71,0.679
NCI-H2342,–,–,–,–,–,0.677,0.781,0.799,0.731,0.636,–,–,–,–,–,0.506,0.682,0.628,0.632,0.535
SW 900,–,–,–,–,–,0.544,0.517,0.453,–,0.647,–,–,–,–,–,0.635,0.499,0.602,0.608,0.504
